Measured values taken from patent publication EP4722207A1, “OXOISOINDOLINYL-SUBSTITUTED TETRAHYDROPYRIMIDINEDIONE DERIVATIVE AND USE THEREOF” (Gluetacs Therapeutics (Shanghai) Co., Ltd., priority 2023, dated 2024).

Legend:
Assay type in all cases: cell-based
Details in all cases: 24 hours of compound treatment, 50 nM and 500 nM
[1] = biological target: T1, GSPT1 (Homo sapiens, UniProt P15170+Q96SW2); experiment: Western-blot assay, substrate protein degradation in hPBMCs: GSPT1
T1 construct: effects of the compounds of the present disclosure on the expression of target proteins in cells; endogenous in cells; host or cells: human PBMCs (hPBMCs)
T1 sequence (P15170 whole entry): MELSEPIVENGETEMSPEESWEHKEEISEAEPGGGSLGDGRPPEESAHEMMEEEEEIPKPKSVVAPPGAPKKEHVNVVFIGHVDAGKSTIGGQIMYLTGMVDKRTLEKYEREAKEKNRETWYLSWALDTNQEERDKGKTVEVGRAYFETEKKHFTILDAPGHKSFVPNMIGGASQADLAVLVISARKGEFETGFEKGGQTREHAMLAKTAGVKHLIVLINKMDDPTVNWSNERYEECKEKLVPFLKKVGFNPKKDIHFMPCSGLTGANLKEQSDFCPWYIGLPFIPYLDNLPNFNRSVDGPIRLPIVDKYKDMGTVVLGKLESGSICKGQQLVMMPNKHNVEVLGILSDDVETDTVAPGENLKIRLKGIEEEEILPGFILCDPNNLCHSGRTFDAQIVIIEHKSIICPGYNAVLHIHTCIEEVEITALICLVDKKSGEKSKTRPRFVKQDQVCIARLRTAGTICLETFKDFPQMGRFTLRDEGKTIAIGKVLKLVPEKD
T1 sequence (Q96SW2 whole entry): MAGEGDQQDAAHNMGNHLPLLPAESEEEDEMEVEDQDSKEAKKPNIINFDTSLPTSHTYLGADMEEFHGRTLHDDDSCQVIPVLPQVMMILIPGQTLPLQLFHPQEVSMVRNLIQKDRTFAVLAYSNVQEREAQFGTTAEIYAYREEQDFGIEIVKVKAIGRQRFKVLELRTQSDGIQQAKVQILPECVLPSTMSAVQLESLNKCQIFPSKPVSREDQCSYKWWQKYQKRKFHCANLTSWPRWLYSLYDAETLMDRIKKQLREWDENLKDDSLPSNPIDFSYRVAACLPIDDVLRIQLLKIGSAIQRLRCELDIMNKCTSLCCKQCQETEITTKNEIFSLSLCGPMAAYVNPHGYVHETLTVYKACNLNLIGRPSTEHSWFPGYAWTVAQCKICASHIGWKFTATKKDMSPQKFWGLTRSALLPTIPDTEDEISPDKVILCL
T1 sequence (Q16531 whole entry partner): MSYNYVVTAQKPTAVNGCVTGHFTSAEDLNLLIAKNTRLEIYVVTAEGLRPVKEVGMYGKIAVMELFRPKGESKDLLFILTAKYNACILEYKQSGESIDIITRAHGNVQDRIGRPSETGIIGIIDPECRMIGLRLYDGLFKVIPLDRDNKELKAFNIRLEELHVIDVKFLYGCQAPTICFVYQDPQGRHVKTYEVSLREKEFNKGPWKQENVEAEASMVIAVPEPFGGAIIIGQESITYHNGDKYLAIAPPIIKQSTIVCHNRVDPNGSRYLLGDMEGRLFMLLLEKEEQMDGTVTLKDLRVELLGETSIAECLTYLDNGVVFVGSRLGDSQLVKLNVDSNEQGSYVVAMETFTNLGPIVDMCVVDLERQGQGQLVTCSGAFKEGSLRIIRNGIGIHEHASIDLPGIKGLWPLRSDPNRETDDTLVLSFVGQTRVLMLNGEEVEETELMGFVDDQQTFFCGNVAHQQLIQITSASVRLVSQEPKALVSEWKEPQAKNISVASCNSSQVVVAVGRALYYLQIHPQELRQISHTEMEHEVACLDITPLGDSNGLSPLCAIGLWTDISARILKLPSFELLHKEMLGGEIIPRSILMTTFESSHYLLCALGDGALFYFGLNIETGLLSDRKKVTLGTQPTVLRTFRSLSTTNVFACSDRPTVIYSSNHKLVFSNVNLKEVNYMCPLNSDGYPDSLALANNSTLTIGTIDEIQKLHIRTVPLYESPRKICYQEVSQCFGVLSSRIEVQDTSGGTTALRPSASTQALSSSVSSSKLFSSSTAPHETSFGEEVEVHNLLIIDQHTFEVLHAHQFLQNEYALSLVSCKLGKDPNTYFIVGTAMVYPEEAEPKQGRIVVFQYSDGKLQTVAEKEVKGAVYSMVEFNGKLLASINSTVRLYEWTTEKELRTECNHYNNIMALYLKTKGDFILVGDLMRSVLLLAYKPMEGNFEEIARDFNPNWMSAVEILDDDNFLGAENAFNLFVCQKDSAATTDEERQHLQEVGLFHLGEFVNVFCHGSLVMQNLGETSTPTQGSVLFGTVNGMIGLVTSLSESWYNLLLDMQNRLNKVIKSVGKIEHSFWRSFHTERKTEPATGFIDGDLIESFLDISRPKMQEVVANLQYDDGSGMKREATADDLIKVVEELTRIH

[2] = biological target: T2, IKZF3 (Homo sapiens, UniProt Q96SW2+Q9UKT9); experiment: Western-blot assay, substrate protein degradation in hPBMCs: IKZF3
T2 construct: effects of the compounds of the present disclosure on the expression of target proteins in cells; endogenous in cells; host or cells: human PBMCs (hPBMCs)
T2 sequence (Q9UKT9 whole entry): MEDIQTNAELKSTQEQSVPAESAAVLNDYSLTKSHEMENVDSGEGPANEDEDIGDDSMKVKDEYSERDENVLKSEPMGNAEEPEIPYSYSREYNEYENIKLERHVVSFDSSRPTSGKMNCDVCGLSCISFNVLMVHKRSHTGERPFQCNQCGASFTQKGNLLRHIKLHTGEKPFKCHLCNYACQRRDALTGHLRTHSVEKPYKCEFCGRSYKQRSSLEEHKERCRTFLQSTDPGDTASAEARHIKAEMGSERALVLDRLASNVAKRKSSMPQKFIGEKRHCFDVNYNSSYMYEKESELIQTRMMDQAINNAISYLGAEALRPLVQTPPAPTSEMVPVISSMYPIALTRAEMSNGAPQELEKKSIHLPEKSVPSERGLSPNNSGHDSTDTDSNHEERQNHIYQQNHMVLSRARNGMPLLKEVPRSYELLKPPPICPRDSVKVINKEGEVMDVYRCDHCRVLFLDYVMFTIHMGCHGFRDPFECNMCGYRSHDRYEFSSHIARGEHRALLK
T2 sequence (Q96SW2 whole entry): as the sequence (Q96SW2 whole entry) above
T2 sequence (Q16531 whole entry partner): as the sequence (Q16531 whole entry partner) above

[3] = biological target: T3, CK1α (Homo sapiens, UniProt P48729+Q96SW2); experiment: Western-blot assay, substrate protein degradation in hPBMCs: CK1α
T3 construct: effects of the compounds of the present disclosure on the expression of target proteins in cells; endogenous in cells; host or cells: human PBMCs (hPBMCs)

[4] = biological target: T4, WEE1 (Homo sapiens, UniProt P30291+Q96SW2); experiment: Western-blot assay, substrate protein degradation in hPBMCs: WEE1
T4 construct: effects of the compounds of the present disclosure on the expression of target proteins in cells; endogenous in cells; host or cells: human PBMCs (hPBMCs)
T4 sequence (P30291 whole entry): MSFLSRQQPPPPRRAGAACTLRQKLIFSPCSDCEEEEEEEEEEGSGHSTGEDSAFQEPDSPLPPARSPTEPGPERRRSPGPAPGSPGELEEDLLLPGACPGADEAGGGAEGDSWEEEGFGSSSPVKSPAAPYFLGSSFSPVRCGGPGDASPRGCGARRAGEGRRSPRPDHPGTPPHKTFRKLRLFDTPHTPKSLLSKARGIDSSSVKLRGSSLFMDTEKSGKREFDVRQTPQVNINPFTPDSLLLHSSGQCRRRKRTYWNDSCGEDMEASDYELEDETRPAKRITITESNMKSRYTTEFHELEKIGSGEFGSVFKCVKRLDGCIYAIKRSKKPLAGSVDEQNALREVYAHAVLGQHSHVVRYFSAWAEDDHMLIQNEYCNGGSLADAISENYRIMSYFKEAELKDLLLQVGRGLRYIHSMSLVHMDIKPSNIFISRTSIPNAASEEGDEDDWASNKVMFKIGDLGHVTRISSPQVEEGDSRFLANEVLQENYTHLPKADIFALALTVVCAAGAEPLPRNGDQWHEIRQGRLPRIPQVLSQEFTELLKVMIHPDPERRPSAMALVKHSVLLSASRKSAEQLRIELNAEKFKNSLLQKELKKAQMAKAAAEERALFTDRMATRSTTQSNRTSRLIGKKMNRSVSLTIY
T4 sequence (Q96SW2 whole entry): as the sequence (Q96SW2 whole entry) above
T4 sequence (Q16531 whole entry partner): as the sequence (Q16531 whole entry partner) above

[5] = biological target: T5, IKZF2 (Homo sapiens, UniProt Q96SW2+Q9UKS7); experiment: Western-blot assay, substrate protein degradation in hPBMCs: IKZF2
T5 construct: effects of the compounds of the present disclosure on the expression of target proteins in cells; endogenous in cells; host or cells: human PBMCs (hPBMCs)
T5 sequence (Q9UKS7 whole entry): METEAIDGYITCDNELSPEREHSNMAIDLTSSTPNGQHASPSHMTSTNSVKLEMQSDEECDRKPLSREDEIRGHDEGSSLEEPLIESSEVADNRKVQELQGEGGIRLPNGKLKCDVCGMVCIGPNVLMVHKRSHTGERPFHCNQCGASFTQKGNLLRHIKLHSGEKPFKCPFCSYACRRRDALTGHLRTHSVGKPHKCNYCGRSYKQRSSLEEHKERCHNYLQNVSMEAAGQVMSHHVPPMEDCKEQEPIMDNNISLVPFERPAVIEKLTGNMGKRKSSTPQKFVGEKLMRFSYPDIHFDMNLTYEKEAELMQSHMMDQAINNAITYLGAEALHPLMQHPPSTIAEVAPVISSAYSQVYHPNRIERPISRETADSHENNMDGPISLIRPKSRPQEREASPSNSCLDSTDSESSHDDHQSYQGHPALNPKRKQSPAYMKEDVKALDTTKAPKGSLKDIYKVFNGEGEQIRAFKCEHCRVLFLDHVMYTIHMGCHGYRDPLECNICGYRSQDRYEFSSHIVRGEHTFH
T5 sequence (Q96SW2 whole entry): as the sequence (Q96SW2 whole entry) above
T5 sequence (Q16531 whole entry partner): as the sequence (Q16531 whole entry partner) above

[6] = biological target: T6, IKZF1 (Homo sapiens, UniProt Q13422+Q96SW2); experiment: Western-blot assay, substrate protein degradation in hPBMCs: IKZF1
T6 construct: effects of the compounds of the present disclosure on the expression of target proteins in cells; endogenous in cells; host or cells: human PBMCs (hPBMCs)
T6 sequence (Q13422 whole entry): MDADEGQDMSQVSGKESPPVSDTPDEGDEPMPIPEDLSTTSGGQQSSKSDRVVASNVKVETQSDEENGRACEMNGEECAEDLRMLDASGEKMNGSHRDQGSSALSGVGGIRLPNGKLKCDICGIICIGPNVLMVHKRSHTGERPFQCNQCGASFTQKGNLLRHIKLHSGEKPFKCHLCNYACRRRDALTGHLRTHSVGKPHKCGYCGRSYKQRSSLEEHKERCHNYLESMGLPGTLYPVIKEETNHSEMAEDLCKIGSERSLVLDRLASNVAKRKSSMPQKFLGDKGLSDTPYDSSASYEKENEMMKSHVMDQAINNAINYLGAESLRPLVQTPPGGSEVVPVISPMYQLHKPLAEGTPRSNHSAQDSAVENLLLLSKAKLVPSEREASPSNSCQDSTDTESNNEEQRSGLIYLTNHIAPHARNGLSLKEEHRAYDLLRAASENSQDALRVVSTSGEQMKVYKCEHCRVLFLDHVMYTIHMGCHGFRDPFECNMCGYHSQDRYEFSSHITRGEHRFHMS
T6 sequence (Q96SW2 whole entry): as the sequence (Q96SW2 whole entry) above
T6 sequence (Q16531 whole entry partner): as the sequence (Q16531 whole entry partner) above

Q: What does the source list for `O=C1CCN(N2Cc3cc(CN4CCC(c5cccc6c(F)cccc56)CC4)ccc3C2=O)C(=O)N1` [GT-07589, 1-(5-((4-(5-fluoronaphthalen-1-yl)piperidin-1-yl)methyl)-1-oxoisoindolin-2-yl)dihydropyrimidine-2,4(1H,3H)-dione]?
A: substrate protein remaining % GSPT1 [1]: A (0% ≤ substrate protein remaining % ≤ 80%); substrate protein remaining % IKZF3 [2]: B (80%< substrate protein remaining %≤ 100%); substrate protein remaining % CK1α [3]: B (80%< substrate protein remaining %≤ 100%); substrate protein remaining % WEE1 [4]: B (80%< substrate protein remaining %≤ 100%); substrate protein remaining % IKZF2 [5]: B (80%< substrate protein remaining %≤ 100%); substrate protein remaining % IKZF1 [6]: B (80%< substrate protein remaining %≤ 100%)

Q: How did the “substrate protein remaining % GSPT1” value [1] turn out when `O=C1CCN(N2Cc3cc(CN4CCC(c5noc6ccccc56)CC4)ccc3C2=O)C(=O)N1` [GT-07642, 1-(5-((4-(benzo[d]isoxazol-3-yl)piperidin-1-yl)methyl)-1-oxoisoindolin-2-yl)dihydropyrimidine-2,4(1H,3H)-dione] was run?
A: The value was “A (0% ≤ substrate protein remaining % ≤ 80%)”.

Q: What about the “substrate protein remaining % IKZF3” value [2] of the same compound?
A: The value was “B (80%< substrate protein remaining %≤ 100%)”.

Q: What about the “substrate protein remaining % CK1α” value [3] of the same compound?
A: Its value is “B (80%< substrate protein remaining %≤ 100%)”.

Q: What about the “substrate protein remaining % WEE1” value [4] of the same compound?
A: Its value is “B (80%< substrate protein remaining %≤ 100%)”.

Q: What about the “substrate protein remaining % IKZF2” value [5] of the same compound?
A: The value was “B (80%< substrate protein remaining %≤ 100%)”.

Q: What about the “substrate protein remaining % IKZF1” value [6] of the same compound?
A: The value was “B (80%< substrate protein remaining %≤ 100%)”.

Q: Which results are given for `O=C1CCN(N2C(=O)c3ccc(CN4CC=C(c5n[nH]c6cc(F)ccc56)CC4)cc3C2=O)C(=O)N1` [GT-07643, 2-(2,4-dioxotetrahydropyrimidin-1(2H)-yl)-5-((4-(6-fluoro-1H-indazol-3-yl)-3,6-dihydropyridin-1(2H)-yl)methyl)isoindoline-1,3-dione]?
A: substrate protein remaining % GSPT1 [1]: A (0% ≤ substrate protein remaining % ≤ 80%); substrate protein remaining % IKZF3 [2]: B (80%< substrate protein remaining %≤ 100%); substrate protein remaining % CK1α [3]: B (80%< substrate protein remaining %≤ 100%); substrate protein remaining % WEE1 [4]: B (80%< substrate protein remaining %≤ 100%); substrate protein remaining % IKZF2 [5]: B (80%< substrate protein remaining %≤ 100%); substrate protein remaining % IKZF1 [6]: B (80%< substrate protein remaining %≤ 100%)

Q: Which results are given for `O=C1CCN(N2Cc3cc(CN4CCC(c5cccc6cnccc56)CC4)ccc3C2=O)C(=O)N1` [GT-07644, 1-(5-((4-(isoquinolin-5-yl)piperidin-1-yl)methyl)-1-oxoisoindolin-2-yl)dihydropyrimidine-2,4(1H,3H)-dione]?
A: substrate protein remaining % GSPT1 [1]: A (0% ≤ substrate protein remaining % ≤ 80%); substrate protein remaining % IKZF3 [2]: B (80%< substrate protein remaining %≤ 100%); substrate protein remaining % CK1α [3]: B (80%< substrate protein remaining %≤ 100%); substrate protein remaining % WEE1 [4]: B (80%< substrate protein remaining %≤ 100%); substrate protein remaining % IKZF2 [5]: B (80%< substrate protein remaining %≤ 100%); substrate protein remaining % IKZF1 [6]: B (80%< substrate protein remaining %≤ 100%)

Q: Which “substrate protein remaining % GSPT1” value [1] does the source give for `O=C1CCN(N2Cc3cc(CN4CCC(c5ccnc6cc(F)ccc56)CC4)ccc3C2=O)C(=O)N1` [GT-07645, 1-(5-((4-(7-fluoroquinolin-4-yl)piperidin-1-yl)methyl)-1-oxoisoindolin-2-yl)dihydropyrimidine-2,4(1H,3H)-dione] here?
A: The value was “A (0% ≤ substrate protein remaining % ≤ 80%)”.

Q: And the “substrate protein remaining % IKZF3” value [2]?
A: The value was “B (80%< substrate protein remaining %≤ 100%)”.

Q: And the “substrate protein remaining % CK1α” value [3]?
A: The value was “B (80%< substrate protein remaining %≤ 100%)”.

Q: What about the “substrate protein remaining % WEE1” value [4] of the same compound?
A: Its value is “B (80%< substrate protein remaining %≤ 100%)”.

Q: What about the “substrate protein remaining % IKZF2” value [5] of the same compound?
A: Its value is “B (80%< substrate protein remaining %≤ 100%)”.

Q: And the “substrate protein remaining % IKZF1” value [6]?
A: Its value is “A (0% ≤ substrate protein remaining % ≤ 80%)”.

Q: Which “substrate protein remaining % GSPT1” value [1] does the source give for `O=C1CCN(N2C(=O)c3ccc(CN4CCC(N5CCCc6cc(F)ccc65)CC4)cc3C2=O)C(=O)N1` [GT-07681, 2-(2,4-dioxotetrahydropyrimidin-1(2H)-yl)-5-((4-(6-fluoro-3,4-dihydroquinolin-1(2H)-yl)piperidin-1-yl)methyl)isoindoline-1,3-dione] here?
A: The value was “A (0% ≤ substrate protein remaining % ≤ 80%)”.

Q: And the “substrate protein remaining % IKZF3” value [2]?
A: The value was “B (80%< substrate protein remaining %≤ 100%)”.

Q: What about the “substrate protein remaining % CK1α” value [3] of the same compound?
A: Its value is “B (80%< substrate protein remaining %≤ 100%)”.

Q: And the “substrate protein remaining % WEE1” value [4]?
A: Its value is “B (80%< substrate protein remaining %≤ 100%)”.

Q: What about the “substrate protein remaining % IKZF2” value [5] of the same compound?
A: Its value is “B (80%< substrate protein remaining %≤ 100%)”.

Q: What about the “substrate protein remaining % IKZF1” value [6] of the same compound?
A: The value was “A (0% ≤ substrate protein remaining % ≤ 80%)”.

Q: `O=C1CCN(N2C(=O)c3ccc(CN4CCC(N5CCOc6cc(F)ccc65)CC4)cc3C2=O)C(=O)N1` [GT-07682, 2-(2,4-dioxotetrahydropyrimidin-1(2H)-yl)-5-((4-(7-fluoro-2,3-dihydro-4H-benzo[b][1,4]oxazin-4-yl)piperidin-1-yl)methyl)isoindoline-1,3-dione] was tested. Which “substrate protein remaining % GSPT1” value [1] did it give?
A: Its value is “A (0% ≤ substrate protein remaining % ≤ 80%)”.

Q: What about the “substrate protein remaining % IKZF3” value [2] of the same compound?
A: Its value is “B (80%< substrate protein remaining %≤ 100%)”.

Q: What about the “substrate protein remaining % CK1α” value [3] of the same compound?
A: The value was “B (80%< substrate protein remaining %≤ 100%)”.

Q: And the “substrate protein remaining % WEE1” value [4]?
A: The value was “B (80%< substrate protein remaining %≤ 100%)”.

Q: What about the “substrate protein remaining % IKZF2” value [5] of the same compound?
A: The value was “B (80%< substrate protein remaining %≤ 100%)”.

Q: What about the “substrate protein remaining % IKZF1” value [6] of the same compound?
A: Its value is “B (80%< substrate protein remaining %≤ 100%)”.

Q: `O=C1CCN(N2C(=O)c3ccc(CN4CCC(N5C(=O)COc6cc(F)ccc65)CC4)cc3C2=O)C(=O)N1` [GT-07683, 2-(2,4-dioxotetrahydropyrimidin-1(2H)-yl)-5-((4-(7-fluoro-3-oxo-2,3-dihydro-4H-benzo[b][1,4]oxazin-4-yl)piperidin-1-yl)methyl)isoindoline-1,3-dione] was tested. Which “substrate protein remaining % GSPT1” value [1] did it give?
A: Its value is “A (0% ≤ substrate protein remaining % ≤ 80%)”.

Q: And the “substrate protein remaining % IKZF3” value [2]?
A: The value was “B (80%< substrate protein remaining %≤ 100%)”.

Q: And the “substrate protein remaining % CK1α” value [3]?
A: The value was “B (80%< substrate protein remaining %≤ 100%)”.

Q: What about the “substrate protein remaining % WEE1” value [4] of the same compound?
A: The value was “B (80%< substrate protein remaining %≤ 100%)”.

Q: What about the “substrate protein remaining % IKZF2” value [5] of the same compound?
A: The value was “B (80%< substrate protein remaining %≤ 100%)”.

Q: And the “substrate protein remaining % IKZF1” value [6]?
A: Its value is “B (80%< substrate protein remaining %≤ 100%)”.

Q: Which results are given for `O=C1CCN(N2C(=O)c3ccc(CN4CCC(C5CCOc6cc(F)ccc65)CC4)cc3C2=O)C(=O)N1` (stereo not drawn) [GT-07684, 2-(2,4-dioxotetrahydropyrimidin-1(2H)-yl)-5-((4-(7-fluorochroman-4-yl)piperidin-1-yl)methyl)isoindoline-1,3-dione]?
A: substrate protein remaining % GSPT1 [1]: A (0% ≤ substrate protein remaining % ≤ 80%); substrate protein remaining % IKZF3 [2]: B (80%< substrate protein remaining %≤ 100%); substrate protein remaining % CK1α [3]: B (80%< substrate protein remaining %≤ 100%); substrate protein remaining % WEE1 [4]: B (80%< substrate protein remaining %≤ 100%); substrate protein remaining % IKZF2 [5]: B (80%< substrate protein remaining %≤ 100%); substrate protein remaining % IKZF1 [6]: B (80%< substrate protein remaining %≤ 100%)

Q: What does the source list for `O=C1CCN(N2C(=O)c3ccc(CN4CCC(=C5CCOc6cc(F)ccc65)CC4)cc3C2=O)C(=O)N1` [GT-07685, 2-(2,4-dioxotetrahydropyrimidin-1(2H)-yl)-5-((4-(7-fluorochroman-4-ylidene)piperidin-1-yl)methyl)isoindoline-1,3-dione]?
A: substrate protein remaining % GSPT1 [1]: A (0% ≤ substrate protein remaining % ≤ 80%); substrate protein remaining % IKZF3 [2]: B (80%< substrate protein remaining %≤ 100%); substrate protein remaining % CK1α [3]: B (80%< substrate protein remaining %≤ 100%); substrate protein remaining % WEE1 [4]: B (80%< substrate protein remaining %≤ 100%); substrate protein remaining % IKZF2 [5]: B (80%< substrate protein remaining %≤ 100%); substrate protein remaining % IKZF1 [6]: B (80%< substrate protein remaining %≤ 100%)

Q: Which results are given for `O=C1CCN(N2C(=O)c3ccc(CN4CCC(c5cccc6c(F)cccc56)CC4)cc3C2=O)C(=O)N1` [GT-07686, 2-(2,4-dioxotetrahydropyrimidin-1(2H)-yl)-5-((4-(5-fluoronaphthalen-1-yl)piperidin-1-yl)methyl)isoindoline-1,3-dione]?
A: substrate protein remaining % GSPT1 [1]: A (0% ≤ substrate protein remaining % ≤ 80%); substrate protein remaining % IKZF3 [2]: B (80%< substrate protein remaining %≤ 100%); substrate protein remaining % CK1α [3]: B (80%< substrate protein remaining %≤ 100%); substrate protein remaining % WEE1 [4]: B (80%< substrate protein remaining %≤ 100%); substrate protein remaining % IKZF2 [5]: B (80%< substrate protein remaining %≤ 100%); substrate protein remaining % IKZF1 [6]: B (80%< substrate protein remaining %≤ 100%)

Q: Which results are given for `O=C1CCN(N2C(=O)c3ccc(CN4CC=C(c5cccc6c(F)cccc56)CC4)cc3C2=O)C(=O)N1` [GT-07687, 2-(2,4-dioxotetrahydropyrimidin-1(2H)-yl)-5-((4-(5-fluoronaphthalen-1-yl)-3,6-dihydropyridin-1(2H)-yl)methyl)isoindoline-1,3-dione]?
A: substrate protein remaining % GSPT1 [1]: A (0% ≤ substrate protein remaining % ≤ 80%); substrate protein remaining % IKZF3 [2]: B (80%< substrate protein remaining %≤ 100%); substrate protein remaining % CK1α [3]: B (80%< substrate protein remaining %≤ 100%); substrate protein remaining % WEE1 [4]: B (80%< substrate protein remaining %≤ 100%); substrate protein remaining % IKZF2 [5]: B (80%< substrate protein remaining %≤ 100%); substrate protein remaining % IKZF1 [6]: B (80%< substrate protein remaining %≤ 100%)

Q: What does the source list for `O=C1CCN(N2C(=O)c3ccc(CN4CCC(c5cccc6cnccc56)CC4)cc3C2=O)C(=O)N1` [GT-07688, 2-(2,4-dioxotetrahydropyrimidin-1(2H)-yl)-5-((4-(isoquinolin-5-yl)piperidin-1-yl)methyl)isoindoline-1,3-dione]?
A: substrate protein remaining % GSPT1 [1]: A (0% ≤ substrate protein remaining % ≤ 80%); substrate protein remaining % IKZF3 [2]: B (80%< substrate protein remaining %≤ 100%); substrate protein remaining % CK1α [3]: B (80%< substrate protein remaining %≤ 100%); substrate protein remaining % WEE1 [4]: B (80%< substrate protein remaining %≤ 100%); substrate protein remaining % IKZF2 [5]: B (80%< substrate protein remaining %≤ 100%); substrate protein remaining % IKZF1 [6]: B (80%< substrate protein remaining %≤ 100%)
